Patent publication US5321045A, “Method and composition for the treatment of imflammatory conditions using thiosulphinic acid derivatives” (Boehringer Mannheim GmbH, priority 1987, dated 1994)

Tests used:
[1] = test system: allergen-induced asthma bronchiale; experiment: Protective action in allergen-induced asthma bronchiale of guinea pigs (ovalbumin inhalation); assay type: in vivo; settings: FIGS. 4-6; dosage as in 1a); ovalbumin one percent, twice
Description: 1. Investigation of the asthma-protective action of compounds in vivo. There was used a mixture of compound 1) (identical with formula III on p.13 of the German text) and compound 2) (identical with formula IV on p.13 of the German text). The ratio of 1): 2) amounted to about 1:2.
For the investigation of the asthma-protective action in vivo, corresponding experiments were carried out with guinea pigs (Dorsch W. et al., Pflugers Arch. 391, page 263 (1981).
9 guinea pigs were--was described under 1a)--corresponding to a randomised crossover protocol, either fed with the active component in olive oil or with the carrier olive oil alone. The dosage of the administered compound amounted to 20 mg./kg. body weight. 30 Minutes later, the animals inhaled twice, at an interval of 10 minutes, in each case for 20 seconds, a one percent ovalbumin solution, the substance to which they had been sensitised 3 weeks previously. The extent of the resulting bronchial obstruction was also determined whole body plethysmographically in 2 minute intervals for the period of twice 10 minutes (for the method see: Dorsch W, Walter O., Rosmanith J.: Continuous Recording of Intrapulmonary "Compressed Air" as a Sensitive Noninvasive Method of Measuring Branchial Obstruction in Guinea Pigs, Pflugers Arch. 391: 236-241 (1981)). […]

[2] = test system: thromboxane biosynthesis of thrombin-stimulated platelet-rich plasma; experiment: Inhibition of the thromboxane biosynthesis of thrombin-stimulated platelet-rich plasma; assay type: cell-based, human; settings: 0.001 mg/ml to 1.0 mg/ml, 15 min
Description: The enzyme-inhibiting action of the compounds were determined in vitro; use of the mixture of compounds 1) and 2).
From a human donor was obtained platelet-rich plasma by the usual method and adjusted to a platelet count of […]. This plasma was incubated either with a solvent (1% dimethyl sulphoxide (DMSO) -physiological common salt solution) or with various concentrations of the compounds (s. Table II).
5 Minutes later, the platelets were stimulated with thrombin (1 or 10 International Units=I.U.) at 37° C. After 15 minutes, the reaction was stopped with ice-cold methanol (volume ratio 1:1), thereafter separated by 10 minutes centrifuging at 3000 U/min. (4° C.).

| Structure (SMILES) | Asthmatic reaction to the inhalation of an antigen [1] | maximum dosage-dependent suppression of the thromboxane B2 biosynthesis [2] [%] |
| --- | --- | --- |
| CS[S+](C)[O-] (stereo not shown) [compound 3, methylthiosulphinic acid methyl ester] | clearly weaken the asthmatic reaction | 61 |
| [O-][S+](Sc1ccccc1)c1ccccc1 (stereo not shown) [compound 4, phenylthiosulphinic acid phenyl ester] | clearly weaken the asthmatic reaction | 76 |
